Values quoted from earlier work as cited in patent US9913840B2, “Formulations for aripiprazole delivery transdermally” (Corium International, Inc., priority 2015, dated 2018).

Settings: at room temperature

O=C1CCc2ccc(OCCCCN3CCN(c4cccc(Cl)c4Cl)CC3)cc2N1 [Aripiprazole]
aqueous solubility: less than 1 μg/mL
